According to patent US11439623B2, “Method of modulating ribonucleotide reductase” (CASE WESTERN RESERVE UNIVERSITY, priority 2017, dated 2022):
Where “and” joins values, the source holds several entries; their conditions need not be identical. Identical values can stand only once. Like-named read-outs stand apart in the source and are kept apart here.

Key:
[1] = test system: human colon cancer HCT116; assay: Cancer cell line growth inhibition assay (DNA content); type: cell-based; details: for Cellular IC50s HCT-116: Table 1, triazole derivatives, one cell printed for both cell lines; for IC50: HCT-116; for activity in cell growth inhibition: HCT116, statement in text
Procedure: (§1) The growth inhibition assay was performed in the Preclinical Drug Testing Laboratory of the Case Comprehensive Cancer Center using a standardized protocol. Cell lines (human colon cancer HCT116 and human pancreas ductal adenocarcinoma Panc cells) were maintained in standard growth media; RPMI1640+10% FBS+2 mM glutamine+100 U/ml penicillin, 100 ug/ml streptomycin and shown to be negative for mycoplasma contamination using the MycoAlert™ Mycoplasma Detection kit (Lonza, Basel, Switzerland). Cell identity was verified by Short Tandem Repeat (STR) testing performed using the Promega StemElite kit, in the Genetic Resources Core Facility (GRCF) at Johns Hopkins University.
(§2) For growth inhibition assays, cells were harvested by trypsinization and seeded into 96-well tissue culture plates at 2500 cells/mL. The following day an equal volume of 2×-drug containing medium was added to each well. The cells were cultured for 3 additional days at 37° C. in a 5% CO2 humidified incubator. Cell growth was assessed by measuring DNA content per well using the method of Labarca and Paigen. Dye fluorescence was measured in a Perkin-Elmer 1420 Victor 3 Multilabel plate reader using 355 nm excitation and 460 nm emission.

[2] = test system: human pancreas ductal adenocarcinoma Panc cells (Panc1); assay: as above; type: cell-based; details: for Cellular IC50s Panc 1: Table 1, triazole derivatives, one cell printed for both cell lines; for activity in cell growth inhibition: Panc1, statement in text
Procedure: as §1, §2

[3] = test system: normal mobilized peripheral blood progenitor cells; details: previously characterized; cited from earlier work
[4] = target: T1, hRRM1 hexamers (Homo sapiens, UniProt P23921); details: background statement; cited from earlier work
T1 sequence (P23921 1-792): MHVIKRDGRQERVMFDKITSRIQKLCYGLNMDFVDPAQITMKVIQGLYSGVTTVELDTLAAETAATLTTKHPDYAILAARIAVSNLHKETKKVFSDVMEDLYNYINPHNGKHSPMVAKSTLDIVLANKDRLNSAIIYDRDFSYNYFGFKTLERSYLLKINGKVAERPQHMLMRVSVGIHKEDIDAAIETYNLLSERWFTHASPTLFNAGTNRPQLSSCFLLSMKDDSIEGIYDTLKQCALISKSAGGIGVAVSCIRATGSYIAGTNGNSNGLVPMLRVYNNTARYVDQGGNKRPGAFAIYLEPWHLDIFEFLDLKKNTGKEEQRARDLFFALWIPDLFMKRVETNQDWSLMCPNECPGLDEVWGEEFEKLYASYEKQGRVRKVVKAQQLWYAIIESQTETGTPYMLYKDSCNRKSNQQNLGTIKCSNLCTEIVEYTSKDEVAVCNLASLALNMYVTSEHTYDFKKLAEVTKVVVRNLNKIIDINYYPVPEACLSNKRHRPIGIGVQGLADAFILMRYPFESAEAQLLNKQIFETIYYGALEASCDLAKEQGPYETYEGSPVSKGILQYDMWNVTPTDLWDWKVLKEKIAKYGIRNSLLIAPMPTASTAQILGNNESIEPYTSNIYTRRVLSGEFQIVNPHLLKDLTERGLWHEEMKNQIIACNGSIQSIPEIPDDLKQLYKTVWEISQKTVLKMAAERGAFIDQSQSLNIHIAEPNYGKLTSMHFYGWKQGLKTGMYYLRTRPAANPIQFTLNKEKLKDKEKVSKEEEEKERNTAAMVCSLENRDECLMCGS

[5] = Homo sapiens, Calcusyn fit, runs Oct. 21 and Oct. 24, 2016, read-out: Dm
[6] = Homo sapiens, PANC-1, Panc1, Calcusyn fit, runs Oct. 21 and Oct. 24, 2016, read-out: Dm
[7] = Homo sapiens, Table 2, oxadiazoles, read-out: Cellular IC50s HCT-116
[8] = Homo sapiens, PANC-1, Table 2, oxadiazoles, read-out: Cellular IC50s Panc 1

Which “Cellular IC50s HCT-116” value [1] does the source give for O=C(O)CC(c1ccccc1)n1cc(-c2c(O)ccc3ccccc23)nn1 (stereo not drawn) here?
Its value is “No cytotoxicity”.

What about the “Cellular IC50s Panc 1” value [2] of the same molecule?
Its value is “No cytotoxicity”.

For O=C(c1c(O)ccc2ccccc12)n1cc(-c2cccnc2)nn1 [NSAAT F], which IC50 [1, 5] is on record?
The IC50 was > 10000 nM.

And the IC50 [2, 6]?
The IC50 was > 10000 nM.

Which “Cellular IC50s HCT-116” value [1] does the source give for COc1ccc2cc(-c3cn(CCc4ccc(O)cc4)nn3)ccc2c1 here?
The value was “No cytotoxicity”.

What about the “Cellular IC50s Panc 1” value [2] of the same molecule?
The value was “No cytotoxicity”.

With O=C(NN=Cc1c(O)ccc2ccccc12)c1ccccc1O [NSAAH, Naphthyl Salicyl Acyl Hydrazone, reference compound] as the molecule, how does the cytotoxicity [3] read?
The cytotoxicity was “little measurable cytotoxicity”.

And the IC50 ([1]; Calcusyn fit, runs Oct. 21 and Oct. 24, 2016, listed as NSAAH (new), read-out: Dm)?
Its IC50 is 176 nM.

What about the IC50 ([1]; Calcusyn fit, runs Oct. 21 and Oct. 24, 2016, listed as NSAAH (old), read-out: Dm) of the same molecule?
Its IC50 is 234 nM and 166 nM.

What about the IC50 ([2]; Panc1, Calcusyn fit, runs Oct. 21 and Oct. 24, 2016, listed as NSAAH (new), read-out: Dm) of the same molecule?
Its IC50 is 850 nM.

What about the IC50 ([2]; Panc1, Calcusyn fit, runs Oct. 21 and Oct. 24, 2016, listed as NSAAH (old), read-out: Dm) of the same molecule?
The IC50 was 550 nM and 480 nM.

With COc1ccc2cc(-c3cn(Cc4ccccc4)nn3)ccc2c1 as the molecule, how does the “Cellular IC50s HCT-116” value [1] read?
The value was “No cytotoxicity”.

And the “Cellular IC50s Panc 1” value [2]?
Its value is “No cytotoxicity”.

Which “Cellular IC50s HCT-116” value [1] does the source give for O=C(c1c(O)ccc2ccccc12)n1cc(-c2cccnc2)nn1 [drawing 60] here?
The value was “No cytotoxicity”.

And the “Cellular IC50s Panc 1” value [2]?
The value was “No cytotoxicity”.

With Oc1ccc2ccccc2c1-c1nnc(-c2cccnc2)o1 [Oxa F] as the molecule, how does the “activity in cell growth inhibition” value [1] read?
The value was “low micromolar range”.

And the IC50 [1, 7]?
The IC50 was 1200 nM.

And the IC50 [1, 5]?
The IC50 was 1410 nM.

What about the IC50 [2, 6] of the same molecule?
Its IC50 is 1920 nM.

And the IC50 [2, 8]?
The IC50 was 2500 nM.

What about the “activity in cell growth inhibition” value [2] of the same molecule?
Its value is “low micromolar range”.

For Cc1c(-n2cc(-c3c(O)ccc4ccccc34)nn2)c(=O)n(-c2ccccc2)n1C, which “Cellular IC50s HCT-116” value [1] is on record?
The value was “No cytotoxicity”.

What about the “Cellular IC50s Panc 1” value [2] of the same molecule?
Its value is “No cytotoxicity”.

For NC1(c2cn([C@H](c3ccccc3)[C@H](O)c3ccccc3)nn2)CCCCC1 [NSAAT E], which IC50 [1, 5] is on record?
Its IC50 is 66800 nM.

What about the IC50 [2, 6] of the same molecule?
The IC50 was > 10000 nM.

With Oc1ccccc1-c1nnc(-c2c(O)ccc3ccccc23)o1 [Oxa A] as the molecule, how does the “activity in cell growth inhibition” value [1] read?
The value was “low micromolar range”.

And the IC50 [1, 7]?
Its IC50 is 3200 nM.

What about the IC50 [1, 5] of the same molecule?
Its IC50 is 6890 nM.

And the IC50 [2, 6]?
The IC50 was 53600 nM.

And the IC50 [2, 8]?
Its IC50 is 7000 nM.

And the “activity in cell growth inhibition” value [2]?
The value was “low micromolar range”.

For Nc1nc(Cl)nc2c1ncn2[C@@H]1O[C@H](CO)[C@@H](O)[C@@H]1F [clofarabine, 2′-fluro-2′-deoxyarabinofuranosyl-2-chloroadenine], which binding affinity [4] is on record?
The binding affinity was “nanomolar affinity”.

With NC1(c2cn([C@H](c3ccccc3)[C@H](O)c3ccccc3)nn2)CCCCC1 [drawing 59] as the molecule, how does the “Cellular IC50s HCT-116” value [1] read?
The value was “No cytotoxicity”.

What about the “Cellular IC50s Panc 1” value [2] of the same molecule?
Its value is “No cytotoxicity”.

Which results are given for C[C@@H]([C@H](O)c1ccccc1)n1cc(-c2c(O)ccc3ccccc23)nn1?
Cellular IC50s HCT-116 [1]: No cytotoxicity; Cellular IC50s Panc 1 [2]: No cytotoxicity
